Measurements: patent US20260250257A1, “ANTIBACTERIAL AND SYNERGISTIC ACTIVE COMPOUND AND USE THEREOF” (EAST CHINA UNIVERSITY OF SCIENCE AND TECHNOLOGY, priority 2023, published 2026)
In brackets after ≈: the same amount, converted by molar mass.

Columns and labels:
Assay type in all cases: cell-based
[1] = system: ATCC9027 strain (Pseudomonas aeruginosa); test: Broth microdilution, antibacterial activity of the compound used alone
Source text: (§1) The broth microdilution method was used to test the antibacterial effects of the compounds of the present invention against various Gram-negative bacterial strains when used alone.

[2] = system: ATCC25922 strain (Escherichia coli); test: as above
Source text: as §1

[3] = system: ATCC19606 strain (Acinetobacter baumannii); test: as above
Source text: as §1

[4] = system: ATCC13883 strain (Klebsiella pneumoniae); test: as above
Source text: as §1

[5] = system: ATCC9027 strain (Pseudomonas aeruginosa); test: Checkerboard antibacterial synergistic activity test with polymyxin E (FIC); set-up: key: FIC≤0.5 synergy; 0.5–1 additive; 1–2 indifferent; ≥2 antagonism; settings: combined with polymyxin E
Description: (§2) Polymyxin E was diluted in sterile MH broth medium to concentrations of 16, 8, 4, 2, 1, 0.5, 0.25, 0.125, 0.0625, 0.031, and 0.015 μg/ml, and the drug to be tested was diluted to concentrations of 256, 128, 64, 32, 16, 8, and 4 μg/ml. According to the checkerboard method, combinations of the drug to be tested and polymyxin at different concentrations in ascending order were placed into a 96-well plate, and corresponding blank control groups were set up. 50 μl of the drug solution was added to each well, then 100 μl of bacterial liquid was added, and incubated in a 37° C. incubator for 16 hours. […] Calculation and judgment criteria:
(§3) Fractional Inhibitory Concentration (FIC) is calculated as follows: […]
(§4) Judgment criteria: FIC≤0.5: synergistic effect; 0.5<FIC<1: additive effect; 1<FIC<2: indifferent effect; FIC≥2: antagonistic effect.
(§5) In the table: ATCC19606 strain is Acinetobacter baumannii, ATCC25922 strain is Escherichia coli, ATCC13883 strain is Klebsiella pneumoniae, ATCC9027 strain is Pseudomonas aeruginosa. All four strains were purchased from ATCC.

[6] = system: ATCC25922 strain (Escherichia coli); test: as above; set-up: key: FIC≤0.5 synergy; 0.5–1 additive; 1–2 indifferent; ≥2 antagonism; settings: combined with polymyxin E
Description: as §2, §3, §4, §5

[7] = system: ATCC19606 strain (Acinetobacter baumannii); test: as above; set-up: key: FIC≤0.5 synergy; 0.5–1 additive; 1–2 indifferent; ≥2 antagonism; settings: combined with polymyxin E
Description: as §2, §3, §4, §5

[8] = system: ATCC13883 strain (Klebsiella pneumoniae); test: as above; set-up: key: FIC≤0.5 synergy; 0.5–1 additive; 1–2 indifferent; ≥2 antagonism; settings: combined with polymyxin E
Description: as §2, §3, §4, §5

Row | SMILES | Antibacterial activity of the compound of Formula I, ATCC9027 [1] [µg/mL] | Antibacterial activity of the compound of Formula I, ATCC25922 [2] [µg/mL] | Antibacterial activity of the compound of Formula I, ATCC19606 [3] [µg/mL] | Antibacterial activity of the compound of Formula I, ATCC13883 [4] [µg/mL] | Synergistic activity (FIC value) ATCC9027 [5] | Synergistic activity (FIC value) ATCC25922 [6] | Synergistic activity (FIC value) ATCC19606 [7] | Synergistic activity (FIC value) ATCC13883 [8] | MIC ([1]; read-out: Antibacterial activity of the compound of Formula I, ATCC9027) [mg/L] | MIC ([2]; read-out: Antibacterial activity of the compound of Formula I, ATCC25922) [mg/L] | MIC ([3]; read-out: Antibacterial activity of the compound of Formula I, ATCC19606) [mg/L] | MIC ([4]; read-out: Antibacterial activity of the compound of Formula I, ATCC13883) [mg/L]
1 | Cc1ccc(NC(=O)Nc2cccc(-c3c[nH]c(N=C4NCCCN4)n3)c2)c(C)c1 [Compound I-199] | 256 | 256 | 256 | 256 | 0.75 | 0.51 | 0.16 | 0.51 | – | – | – | –
2 | c1ccn2c(-c3coc(N=C4NCCCN4)n3)ccc2c1 [Compound I-189] | 256 | 256 | 256 | 256 | 0.63 | 0.5 | 0.28 | 0.25 | – | – | – | –
3 | NC(N)=Nc1nc(-c2cccc(N3CCOCC3)c2)cs1 [Compound I-120] | 256 | 256 | 256 | 256 | 0.25 | 0.75 | 1.25 | 0.28 | – | – | – | –
4 | NC(N)=Nc1nc(-c2cccc(Oc3ccc(I)cc3I)c2)cs1 [Compound I-97] | 256 | 256 | 256 | 256 | 0.28 | 0.2 | 0.04 | 0.13 | – | – | – | –
5 | NC(N)=Nc1nc(-c2cc(Cl)cc(Oc3ccc(Cl)cc3Cl)c2)cs1 [Compound I-99] | 256 | 256 | 256 | 256 | 0.28 | 0.18 | 0.03 | 0.16 | – | – | – | –
6 | Oc1cc(Oc2ccc(Cl)cc2Cl)cc(-c2csc(N=C3NCCCN3)n2)c1 [Compound I-156] | 256 | 256 | 256 | 256 | 0.28 | 0.2 | 0.04 | 0.13 | – | – | – | –
7 | Cc1ccccc1Oc1ccccc1-c1nc(N=C2NCCCN2)oc1Cl [Compound I-142] | 256 | 256 | 256 | 256 | 0.06 | 0.14 | 0.31 | 0.09 | – | – | – | –
8 | CSc1cc2cccc(C)n2c1-c1csc(N=C2NCCCN2)n1 [Compound I-194] | 64 | 128 | 256 | 128 | 0.63 | 0.5 | 1.25 | 1.25 | – | – | – | –
9 | COc1ccc(Oc2cc(Br)cc(-c3csc(N=C4NCCCN4)n3)c2)c(OC)c1 [Compound I-159] | 256 | 256 | 256 | 256 | 0.06 | 0.14 | 0.31 | 0.09 | – | – | – | –
10 | CN(C)c1ccc(-c2nc(N=C(N)N)[nH]c2Cl)c(-c2ccco2)c1 [Compound I-78] | 128 | 256 | 256 | 256 | 0.63 | 0.5 | 0.75 | 0.38 | – | – | – | –
11 | C[S+]([O-])c1cccc(-c2csc(N=C(N)N)n2)c1 (stereo not drawn) [Compound I-27] | 256 | 256 | 256 | 256 | 1.25 | 1.25 | 0.51 | 1.25 | – | – | – | –
12 | NC(N)=Nc1nc(-c2cccc(Oc3ccccn3)c2)cs1 [Compound I-104] | – | – | – | – | 0.52 | 1.25 | 0.25 | 1.25 | 256 (≈ 822 µM) | 256 (≈ 822 µM) | 256 (≈ 822 µM) | 256 (≈ 822 µM)
